Laboratory results from patent publication US20060173080A1, “Methods of modulating TNF using bupropion” (The Regents of the University of California, priority 2002, published 2006).
“Also recorded” adds a separate entry of the source. Structures can show the parent of a compound that is named as a salt.

Legend:
major depression = assay: Course of major depression in the case patients on bupropion; type: in vivo, human; settings: case patients on bupropion 150 mg BID or TID; hydrochloride
Description: After careful review of treatment options, they were started on bupropion (fluoxetine was stopped) with up-titration to 150 mg twice a day. Their abdominal complaints eased over the next months, and the major depression remitted. The baseline dysthymia remained. To better treat the dysthymia, bupropion was raised to 150 mg three times daily with a further lowering of their CDAI. The mesalamine was tapered off. Their CDAI is currently approximately zero. They have one well-formed bowel movement daily and has been without abdominal symptoms or encopresis for 19 months now. They have had no CD flares since starting bupropion. Twice in the last year, they stopped bupropion on their own accord because they felt completely well and felt they didn't need bupropion anymore. […] A person with NYSHA Class I CHF who started on bupropion for major depression. Their TNF before bupropion was 347 pg/ml and 5 pg/ml after two months on bupropion 150 mg twice a day (BID). […] In addition, a person with a history of two myocardial infarctions and NYSHA Class II CHF, who started on bupropion for major depression and desire to stop a 1.5 container/day chewing tobacco habit. Their TNF before starting bupropion was 433 pg/ml, and […] and then four weeks on bupropion 150 mg three times a day (TID). They subsequently stopped using tobacco and their depression is in remission.

TNF [1] = assay: Serum TNF by ELISA in LPS-challenged mice; type: in vivo, BALB/c mice; settings: bupropion 100 mg/kg i.p. 1 h before 600 μg LPS i.p., serum 90 min after LPS
Description: (§1) To study the immunomodulatory effects of bupropion we used a mouse model in which TNF production is induced by stimulation with lipopolysaccharide (LPS) (Bozza et al, The PACAP-type I receptor agonist maxadilan from sand fly saliva protects mice against lethal endotoxemia by a mechanism partially dependent on IL-10, Eur. J. Immunol. 28, 3120-3127, 1998). BALB/c mice were injected intraperitoneally (i.p.) with bupropion or placebo 1 h prior to i.p. injection of LPS (600 ug/mouse).
(§2) Male, 6 weeks old BALB/c mice were used in LPS-induced shock experiments. All mice were raised and maintained at the animal facilities at the Goncalo Moniz Research Center-FIOCRUZ, and provided with rodent diet and water ad libitum. Animal numbers in experimental groups were the minimum necessary to permit statistical analysis. All animals were sacrificed under anaesthesia.
Groups of mice were injected intraperitoneally (i.p.) with a dose of 600 μg of LPS (from Escherichia coli serotype 0111 :B4, Sigma, St. Louis, Mo., USA) in saline (previously determined as LD 100) 1 h after injection of placebo or bupropion. In some experiments, groups of mice received i.p. injection of propranolol (1 mg/Kg), SCH23390 (25 μg/kg) and sulpiride (25 mg/Kg) 1 h prior to injection of bupropion. […]. To determine serum TNF, IL-1 beta and IL-10 levels, mice were sacrificed 90 min after injection of LPS and bled by axilar vein puncture. Levels of IFN-gamma and nitric oxide were assayed using sera of mice sacrificed 4 h after LPS injection. Platelet and leukocyte cell counts were performed using blood collected with EDTA after 4 h of LPS challenge, using an automated cell counter (ADVIA 60, Bayer).
(§3) TNF, IL-1beta, IFN-gamma and IL-10 concentrations in serum samples or in supernatants from macrophage cultures were determined by enzyme-linked immunosorbent assay (ELISA) using antibody pairs and recombinant cytokines from R&D systems (Minneapolis, Minn., USA), according to the manufacturer's instructions. After incubation with streptoavidin-peroxidase conjugate (Sigma), the reaction was developed using 3,3′, 5,5′-tetramethylbenzidine (TMB) peroxidase substrate and read at 450 nm. The serum concentration of nitrite (NO2−) was determined by the Griess reaction, as an indicator of nitric oxide production (Green et al., Analysis of nitrate nitrite and [^15N] nitrite in biological fluids. Anal. Biochem 126, 131-138, 1982). […] The absorbance of the reaction product at 540 nm was measured using an ELISA reader. The NO2^− concentration was determined by using sodium nitrite as standard. Data were analyzed using Student's t test, one-way ANOVA or Newman-Keuls multiple comparison test, using Graph Pad Prism 3.0 software. […]

IL-1beta = assay: Serum IL-1beta by ELISA in LPS-challenged mice; type: in vivo, BALB/c mice; settings: bupropion 100 mg/kg i.p. 1 h before 600 μg LPS i.p., serum 90 min after LPS
Description: as §1
as §2, with “anaesthesia. […]” for “anaesthesia.”
as §3

CD patients = settings: Kast and Altschuler 2001; cited from earlier work
TNF [2] = settings: Altschuler and Kast 2003; cited from earlier work
nitric oxide = assay: Serum nitrite (Griess reaction) as indicator of nitric oxide production in LPS-challenged mice; type: in vivo, BALB/c mice; settings: bupropion i.p. 1 h before 600 μg LPS
Description: as §1
Male, 6 weeks old BALB/c mice were used in LPS-induced shock experiments. […]
as §3, with “reader.” for “reader. The NO2^− concentration was determined by using sodium nitrite as standard. Data were analyzed using Student's t test, one-way ANOVA or Newman-Keuls multiple comparison test, using Graph Pad Prism 3.0 software.”

BALB/c mice = assay: LPS-induced shock model: survival and signs of endotoxemia after lethal LPS challenge; type: in vivo; settings: for survival after lethal LPS challenge: mouse, in vivo, hydrochloride
Description: Male BALB/c mice were injected with 11, 33 or 100 mg/kg of bupropion or with placebo i.p. in saline 1 h before challenge with 600 μg of E. coli LPS (Sigma, St. Louis, Mo.) by i.p. route. Mice were sacrificed 90 min for detection of cytokines in the serum by sandwich ELISA. Values represent the means±SEM of 5 mice per group. * P<0.05.
BALB/c mice were injected intraperitoneally (i.p.) with bupropion or placebo 1 h prior to i.p. injection of LPS (600 ug/mouse).
as §2
In some experiments, groups of mice received i.p. injection of propranolol (1 mg/Kg), SCH23390 (25 μg/kg) and sulpiride (25 mg/Kg) 1 h prior to injection of bupropion. […] To determine serum TNF, IL-1 beta and IL-10 levels, mice were sacrificed 90 min after injection of LPS and bled by axilar vein puncture. Levels of IFN-gamma and nitric oxide were assayed using sera of mice sacrificed 4 h after LPS injection. Platelet and leukocyte cell counts were performed using blood collected with EDTA after 4 h of LPS challenge, using an automated cell counter (ADVIA 60, Bayer).

[3] = listed as bupropion hydrochloride
[4] = listed as Bupropion, hydrochloride

## CC(NC(C)(C)C)C(=O)c1cccc(Cl)c1 (racemic) [bupropion, (.±.)-1-(3-chlorophenyl)-2-[(1,1-dimethylethyl)amino]-1-propanone hydrochloride]
Major depression
  depression outcome: partially controlled; also recorded: in remission; also recorded: remitted
TNF [1]; [3]
  serum TNF level compared with placebo: decrease
TNF [1]; hydrochloride
  serum TNF level compared with placebo: lowers; also recorded: significantly reduced
TNF [1]; [4]
  serum TNF level compared with placebo: significantly decreased
TNF [1]; listed as buproprion, hydrochloride
  serum TNF level compared with placebo: decreased
IL-1beta; [3]
  serum IL-1beta level compared with placebo: decrease
IL-1beta; hydrochloride
  serum IL-1beta level compared with placebo: significantly reduced
IL-1beta; [4]
  serum IL-1beta level compared with placebo: significantly decreased
CD patients
  clinical remission of CD (published cases): clinical remission
TNF [2]
  circulating TNF levels: lowers
Nitric oxide
  nitric oxide level compared with placebo: decreased with a trend toward significance
Nitric oxide; serum 4 h after LPS
  production of nitric oxide, reduction compared to placebo treated mice: about four-fold
BALB/c mice; bupropion 100 mg/kg, compared with placebo
  signs of endotoxemia (diarrhea, immobility, lethargy, piloerection, shivering): milder or absent
BALB/c mice
  survival after lethal LPS challenge: protects mice
BALB/c mice; [3]
  survival after lethal LPS challenge: increased survival rates
BALB/c mice; listed as buproprion
  survival after lethal LPS challenge: significantly increased the survival time
